Structures are written as SMILES. Where two headings read alike, the source gives them in different places.

The source of these data is patent US4444691A, “11-Cyano-prostaglandins of the F-series” (American Cyanamid Company, priority 1982, dated 1984).

Data set [1] deals with bronchospasms elicited by 5-hydroxytryptamine. Kind of data set: Bronchodilator activity (Konzett assay), 5-hydroxytryptamine bronchospasm. The format is in vivo, guinea pigs. The settings on record: Cavia porcellus; spasmogenic agent 5-hydroxytryptamine; three logarithmic cumulative intravenous doses. The procedure:
(§1) Bronchodilator activity was determined in guinea pigs against bronchospasms elicited by intravenous injections of 5-hydroxytryptamine, histamine or acetylchlorine by the Konzett procedure. (See J. Lulling, P. Licvens, F. El Sayed and J. Prignot, Arzneinittel-Forschung, 18, 995 (1968).]
(§2) In the Table which follows bronchodilator activity for representative compounds of this invention against one or more of the three spasmogenic agents is expressed as an ED50 determined from the results obtained with three logarithmic cumulative intravenous doses.

Data set [2] relates to bronchospasms elicited by acetylcholine. Kind of data set: Bronchodilator activity (Konzett assay), acetylcholine bronchospasm. Format: in vivo, guinea pigs. The settings on record: Cavia porcellus; spasmogenic agent acetylcholine; three logarithmic cumulative intravenous doses. The procedure:
as §1, §2

The subject of data set [3] is bronchospasms elicited by histamine. Description: Bronchodilator activity (Konzett assay), histamine bronchospasm. The settings on record: Cavia porcellus, iv, spasmogenic agent histamine; three logarithmic cumulative intravenous doses. Format: in vivo, guinea pigs. The procedure: as §1, §2
Data set [4] has as its system ulcerogenic effects induced by indomethacin (stomach ulcers). The format is in vivo, rat. The note with it: indomethacin 20 mg/kg s.c. The procedure: It is further to be noted that although prostaglandins in general are not effective when administered by oral route, the compounds of this invention are effective orally. The assay to determine the protective effect of these compounds is carried out in the following manner.
Rats were starved for 48 hours (water was given ad libitum). Indomethacin (20 mg./kg. of body weight) was administered by the subcutaneous route and one-half the dose of the test compound was administered by gavage at the same time. After three hours, the second half of the test compound was administered, also by gavage. Five hours after the administration of indomethacin the animals were decapitated and the stomachs removed. The stomachs were washed with distilled water, blotted on gauze, cut along the larger curvature, and the contents rinsed with distilled water. The stomachs were spread out, pinned on a cork and visualized under magnifying glass for ulcers. The criteria for scoring of ulcers was as previously reported. [Abdel-Galil et al. Brit. J. Pharmac. Chemotherapy 33:1-14 (1968)]. […]
1 Petechial hemorrhage of pin point ulcers
3 Many ulcers, a few large
4 Many ulcers, mainly large
Control animals treated with indomethacin but not test compound consistently give scores of about 2.5-3.5. Control animals treated with neither indomethacin not test compound give scores of about 0.5-0.8. Compounds diminishing the control ulcer score by 0.5 unit or more are considered to be active.

Data set [5] concerns gastric acid secretion. Description: Gastric acid secretion inhibition, modified Shay rat procedure. Format: in vivo, rats (male, CFE strain). The note with it: Rattus norvegicus, read-out: Percent inhibition of gastric acid secretion. An excerpt: The novel compounds of the present invention are effective inhibitors of gastric acid secretion and of ulcer development in experimental animals, and thus are potentially valuable as agents for the control of gastric secretion and of gastric erosion and as anti-ulcer agents. Gastric acid secretion inhibitory action is usually measured by the "Shay rat" procedure ^(1,2) with some modifications as follows.
(1) Shay et al., Gastroenterology, 5, 43 (1945).
The rats (male, CFE strain) were starved for 48 hours (water was given ad libitum) to permit evacuation of stomach contents. On the morning of the experiment, under ether anesthesia, the abdominal region was shaved and a midline incision (1-11/2" ) was made with a scapel. With the help of a closed curved hemostat the duodenum was picked up. Upon getting the duodenum into view, fingers were used to pull the stomach through the opening, the stomach was then gently manipulated with fingers to rid stomach of air and residual matter which were pushed through the pylorus. Two-5 inch sutures were drawn under the pyloric-duodenal puncture. A ligature at the juncture, was formed with one of the threads. The second ligature was also formed but not tightened.
The test compound or the vehicle, usually 1 ml./100 g. body weight, were injected into the duodenum as close as possible to the first ligature. After injection the second ligature was tightened below the injection site to minimize leakage. The stomach was placed back through the opening into the abdominal cavity, the area of incision was washed with saline and the incision was closed with autoclips. (Occasionally, instead of an intraduodenal injection, animals were dosed by the oral or subcutaneous route. In the latter case, dosing was done thirty to sixty minutes before the operation.)
The abdominal cavity was exposed by cutting with scissors and the esophagus close to the stomach was clamped off with a hemostat, the stomach was removed by cutting above the hemostat (the esophagus was cut) and between the two sutures. Extraneous tissue was removed, the stomach washed with saline and blotted on gauze. A slit was carefully made in the stomach which was held over a funnel and the contents were collected in a centrifuge tube. The stomach was further cut along the outside edge and turned inside out. Two ml. H2 O were used to wash the stomach contents into the respective centrifuge tube. The combined stomach contents and wash were then centrifuged out for 10 minutes in the International Size 2 Centrifuge (setting at 30). The supernatant was collected, volume measured and recorded, 2 drops of a phenylphthalein indicator (1% in 95% ethanol) were added and the solution was titrated with 0.02 N NaOH (or with 0.04 N NaOH when large volumes of stomach contents were encountered) to pH 8.4 (because of usual coloring of the stomach contents, phenolphthalein was only used to permit visual indication that the end point was near) and the amount of acid present was calculated.
Compounds inducing inhibition of gastric acid secretion of 20% or more were considered active. In a representative operation, and merely by way of illustration, the results obtained with this assay with typical compounds of the present invention are given in Table II below.

Data set [6] concerns basal gastric acid secretion. Description: Inhibition of total acid output (basal gastric acid secretion) in the acute gastric fistula rat. Format: in vivo, female Sprague-Dawley rats. The settings on record: Rattus norvegicus, intraduodenal. The procedure:
Inhibition of basal gastric acid secretion can be determined by the following procedure.
Female Sprague-Dawley rats weighing 140-160 grams are fasted in individual cages for 18-24 hours. The rats are then lightly anesthetized with ether and their front teeth extracted to avoid destruction of the plastic cannula. A midline incision is then made and the stomach and duodenum exposed. A flanged polyvinyl tube is inserted into the fundic portion of the stomach and secured with a purse string suture line using 4-O Mersilene. The rat is then dosed by injection of the compound into the duodenum (1.0 ml. per 100 gram body weight). After dosing, the abdominal wall and skin are closed using metal wound clips. The rat is replaced in a cage containing a longitudinal slit to allow the polyvinyl tube to hang freely. An 8 ml. plastic collecting tube is attached to the flanged cannula and hangs freely below the cage. The first 30 minute sample is discarded designating this time as zero. The collecting tube is attached again and samples removed at the end of 60 and 120 minutes. These samples are referred to as "A" and "B" in the table. The hourly samples are then transferred to a 15 ml. centrifuge and centrifuged for 5-10 minutes. Total and sediment volume are then recorded with the supernatent volume being used as volume of secretion. A 1 ml. or less aliquot is then removed and placed in a 50 ml. beaker containing 10 ml. of distilled water. This sample is then titrated using 0.01 N NaPH to pH 7.0 using a Beckman zeromatic pH meter. Volume, titratable acidity (mew/L) and total acid output (ueq/hour) are recorded. Percent inhibition is determined by comparison with the appropriate control. Groups of three rats were used for preliminary testing, and groups of six rats were used for dose-response evaluations. All compounds are administered in a vehicle consisting of 0.5% methocel, 0.4% tween 80, and saline at a constant volume of 1 ml./100 gram rat. Samples are dispersed by sonification. Percent inhibition is calculated on basis of concurrent vehicle control.
In Table III which follows is given the effect on total acid output after 60 minutes and 120 minutes of intraduodenal dose, of representative compounds of this invention.

Data set [7] deals with ligated intestine. On the set-up: species or system female Sprague-Dawley rats. The note with it: rat, in vivo. The procedure:
It is therefore unexpected and novel that in general, the compounds of this invention are not diarrheagenic at dose levels at which they are effective gastric acid secretion inhibitors. One measure of diarrheagenic potential is the ileal ligated rat assay, a description of which follows directly.
Female Sprague-Dawley rats (Charles River Laboratories) weighing less than 100 grams are fasted in individual cages for at least 18 hours. They are then anesthetized with ether and a midline incision made. The duodenum is exposed and the test drug or control injected intraduodenally. The ilcocecal junction is then exposed and the terminal ileum is ligated using 3-0 silk thread just proximal to the junction. The incision is then closed using wound clips. Rats are placed back in individual cages without food or water for four hours. After this time the rats were sacrificed, the stomach and small intestine carefully removed, and cleaned of adherent mesentery. The removed portion of gut is then weighed to the nearest 0.1 gram. Compounds inducing diarrhea such as prostaglandins, cholera toxin, etc. produce an increase in weight of the ligated intestine. This increase from control is noted in Table IV, as change in weight in grams after standardizing weights of gut to grams/100 gram rat. An increase in intestinal weight of about 1.0 g. is considered indicative of diarrheagenic potential.
When measured by this assay at effective gastric acid secretion inhibiting doses, as determined by the acute rat fistula assay representative novel compounds of Table IV are non-diarrheagenic.

[8] abbreviates: 1 h, 60 min, read-out: % Inhibition of total acid output, after 60 minutes (A).
Setting [9] is: 2 h, 120 min, read-out: % Inhibition of total acid output, after 120 minutes (B).
The mark [10] stands for this setting: total oral dose 12.5 mg/kg, score 0-4, controls 2.5-3.0.

As to `CCCCC[C@H](O)/C=C/[C@H]1[C@H](CC(=O)O)CC(=O)[C@@H]1C/C=C\CCCC(=O)O` [11-deoxy-11α-carboxymethylprostaglandin E2], the 50% effective dose (ED50) is 5.5 mg/kg in data set [1], 4.6 mg/kg in data set [2] and 3.4 mg/kg in data set [3].

As to `CCCCC[C@H](O)/C=C/[C@H]1[C@H](C[N+](=O)[O-])CC(=O)[C@@H]1C/C=C\CCCC(=O)O` [11-deoxy-11α-nitromethyl prostaglandin E2], in data set [4] (total oral dose 100 mg/kg, score 0-4, controls 3.2), the “Ulcer score, treated animals” value worked out at 1.0. For the same compound, the ED50 in data set [2] was 1.7 mg/kg; in data set [3], 1.4 mg/kg. Further, in data set [5] (intraduodenal, 100 mg/kg), the inhibition in vivo at 100 mg/kg is 74%.

Regarding `CCCCC[C@H](O)/C=C/[C@H]1[C@@H](CO)CC(=O)[C@@H]1C/C=C\CCCC(=O)O` [11-deoxy-11β-hydroxymethyl-prostaglandin E2], the ED50 in data set [1] was 0.3 mg/kg; in data set [2], 0.25 mg/kg; in data set [3], 0.065 mg/kg. Further, the inhibition in vivo at 8 mg/kg in data set [5] (sc, subcutaneous, 8 mg/kg) turned out to be 44%.

For `CCCCC[C@H](O)/C=C/[C@H]1C(SC(C)=O)CC(=O)[C@@H]1C/C=C\CCCC(=O)O` (stereo partly drawn) [l-11-acetylthio-11-deoxyprostaglandin-E2, 11-deoxy-11α/β-acetylthioprostaglandin E2], the inhibition in vivo at 10 mg/kg in data set [6] (setting [8]) is 66%; in data set [6] (setting [9]) it was 68%. The “Increase in weight of intestine” value was -0.02 g in data set [7] (10 mg/kg) and -0.1 g in data set [7] (20 mg/kg).

Regarding `CCCCC[C@H](O)/C=C/[C@H]1[C@H](CO)C[C@@H](O)[C@@H]1C/C=C\CCCC(=O)O` [l-11-dexoy-11α-hydroxymethylprostaglandin-F2 β], the inhibition in vivo at 5 mg/kg in data set [6] (setting [8]) and in data set [6] (setting [9]) was 49% throughout. Moreover, the “Increase in weight of intestine” value in data set [7] (10 mg/kg) is recorded as “+0.6 g”.

Take `CCCCC[C@H](O)/C=C/[C@H]1[C@H](C#N)CC(=O)[C@@H]1C/C=C\CCCC(=O)O` [l-11α-cyano-11-deoxyprostaglandin-E2, l-11-deoxy-11α-cyanoprostaglandin-E2]: the ED50 came to 0.0003 mg/kg in data set [1], 0.0053 mg/kg in data set [2] and 0.0014 mg/kg in data set [3]. Moreover, the results for the inhibition in vivo at 10 mg/kg in data set [6] (setting [8]) and in data set [6] (setting [9]) were 49% and 18%, respectively.

Take `CCCCC[C@H](O)/C=C/[C@H]1[C@H](SCC)CC(=O)[C@@H]1C/C=C\CCCC(=O)O` [l-11α-ethylthio-11-deoxyprostaglandin-E2, 11-deoxy-11α-ethylthioprostaglandin E2]: in data set [7] (10 mg/kg), the “Increase in weight of intestine” value is -0.2 g.

For `CCCCC[C@H](O)/C=C/[C@H]1[C@H](C)CC(=O)[C@@H]1C/C=C\CCCC(=O)O` [l-11α-methyl-11-deoxyprostaglandin-E2, 11-deoxy-11α-methyl-prostaglandin E2], the results for the ED50 in data set [1], in data set [2] and in data set [3] were 0.0022 mg/kg, 1.19 mg/kg and 0.05 mg/kg, respectively. In addition, the “Ulcer score, treated animals” value in data set [4] (total oral dose 6.25 mg/kg, score 0 (normal) to 4, controls 3.0) stood at 2.5; in data set [4] (setting [10]), 2.0; in data set [4] (total oral dose 25 mg/kg, score 0-4, controls 2.7-3.9), 1.7. In data set [5] (intraduodenal), the inhibition in vivo at 50 mg/kg worked out at 63%.

For the compound `CCCCC[C@H](O)/C=C/[C@H]1C(C#N)CC(=O)[C@@H]1C/C=C\CCCC(=O)O` (stereo partly drawn) [l-11α/β-cyano-11-deoxyprostaglandin-E2, 11α/β-cyano-11-deoxy-prostaglandin E2], the ED50 in data set [1] stood at 0.036 mg/kg; in data set [2] it was 0.091 mg/kg; in data set [3] it was 0.0054 mg/kg. In addition, the “Ulcer score, treated animals” value in data set [4] (setting [10]) is listed as 1.2. In data set [5] (intraduodenal, 25 mg/kg), the inhibition in vivo at 25 mg/kg was 31%. Also, the inhibition in vivo at 50 mg/kg in data set [5] (intraduodenal) came out at 79%.

As usually defined, the ED50 is the dose that gives a 50% effect, or the effect in half of the subjects.
